Results from PubChem BioAssay AID248 (DTP/NCI, 2004).
Several values for one entry are separate records, joined by “and”; a condition that tells them apart may be missing. Equal entries are not always repeated. Toxic doses and inconclusive results are not listed. No stated cut-off is given here; in the data, active means T/C of 150% or more; inactive means T/C below 125%.

Test system: L1210 leukemia ip in BDF1 mice, survival T/C
Test: NCI In Vivo Anticancer Drug Screen. Data for tumor model L1210 Leukemia (intraperitoneal) in B6D2F1 (BDF1) mice
Settings: endpoint: mean survival time, higher = longer survival
Method in brief: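 Mice bearing the transplanted tumor received compound or vehicle. Survival of the treated group was divided by that of the vehicle-treated control group to give the ratio.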

[1] = dose: 100.0 mg/kg/injection, schedule: Q01DX001 (ip), vehicle: saline
[2] = dose: 200.0 mg/kg/injection, schedule: Q01DX001 (ip), vehicle: saline
[3] = dose: 400.0 mg/kg/injection, schedule: Q01DX001 (ip), vehicle: saline
[4] = dose: 100.0 mg/kg/injection, schedule: Q01DX001 (ip), vehicle: Klucel (hydroxypropylcellulose) (HPC)
[5] = dose: 100.0 mg/kg/injection, schedule: Q04DX003 (ip), vehicle: Klucel (hydroxypropylcellulose) (HPC)
[6] = dose: 200.0 mg/kg/injection, schedule: Q01DX001 (ip), vehicle: Klucel (hydroxypropylcellulose) (HPC)
[7] = dose: 200.0 mg/kg/injection, schedule: Q04DX003 (ip), vehicle: Klucel (hydroxypropylcellulose) (HPC)
[8] = dose: 400.0 mg/kg/injection, schedule: Q04DX003 (ip), vehicle: Klucel (hydroxypropylcellulose) (HPC)
[9] = dose: 100.0 mg/kg/injection, schedule: Q01DX009 (ip), vehicle: Klucel (hydroxypropylcellulose) (HPC)
[10] = dose: 200.0 mg/kg/injection, schedule: Q01DX009 (ip), vehicle: Klucel (hydroxypropylcellulose) (HPC)
[11] = dose: 400.0 mg/kg/injection, schedule: Q01DX009 (ip), vehicle: Klucel (hydroxypropylcellulose) (HPC)

Measured: T/C

CC[C@H](CC[C@@H](C)[C@H]1CC[C@H]2[C@@H]3CC=C4C[C@@H](OC(=O)CSC(CC(=O)O)C(=O)O)CC[C@]4(C)[C@H]3CC[C@]12C)C(C)C (stereo partly drawn)
inactive: dose: 100.0 mg/kg/injection, schedule: Q01DX001 (ip), vehicle: water 98 % of control | dose: 200.0 mg/kg/injection, schedule: Q01DX001 (ip), vehicle: water 86 % of control | dose: 400.0 mg/kg/injection, schedule: Q01DX001 (ip), vehicle: water 93 % of control

CCOC(=O)CS(C)(=O)=O
inactive: [1] 98 % of control | [2] 93 % of control | [3] 94 % of control

CC1SCC(=O)CS1
inactive: [4] 93 % of control | [5] 91 % of control | [6] 96 % of control | [7] 94 % of control | dose: 400.0 mg/kg/injection, schedule: Q01DX001 (ip), vehicle: Klucel (hydroxypropylcellulose) (HPC) 96 % of control | [8] 97 % of control

COc1cc(C[N+]23CC[N+](Cc4cc(OC)c(OC)c(OC)c4)(CC2)C3)cc(OC)c1OC
inactive: [1] 101 % of control | [2] 98 % of control | [3] 95 % of control

CC1=C(C)Cc2c(OC(=O)c3ccccc3)ccc(OC(=O)c3ccccc3)c2C1
inactive: dose: 3.12 mg/kg/injection, schedule: Q01DX009 (ip), vehicle: water 101 % of control | dose: 6.25 mg/kg/injection, schedule: Q01DX009 (ip), vehicle: water 101 % of control | dose: 12.5 mg/kg/injection, schedule: Q01DX009 (ip), vehicle: water 96 % of control | dose: 25.0 mg/kg/injection, schedule: Q01DX009 (ip), vehicle: water 98 % of control and 119 % of control | dose: 50.0 mg/kg/injection, schedule: Q01DX009 (ip), vehicle: water 101 % of control | dose: 100.0 mg/kg/injection, schedule: Q01DX009 (ip), vehicle: water 90 % of control | dose: 200.0 mg/kg/injection, schedule: Q01DX009 (ip), vehicle: water 90 % of control | dose: 400.0 mg/kg/injection, schedule: Q01DX009 (ip), vehicle: water 97 % of control

CC(C)c1ccccc(=O)c1O.CC(C)c1ccccc(=O)c1O.[Cu]
inactive: dose: 200.0 mg/kg/injection, schedule: Q04DX003 (ip), vehicle: saline with Tween-80 91 % of control

O=C(O)c1c(Br)c(Br)c(Br)c(Br)c1C(=O)Nc1cc([N+](=O)[O-])ccc1O
inactive: [9] 106 % of control | [10] 122 % of control | [11] 101 % of control

CCOc1nc(Cl)nc2nc[nH]c12
inactive: [1] 102 % of control | [2] 102 % of control | [3] 96 % of control

O/N=C1/CCCC/C1=C/C=C/c1ccccc1
inactive: [9] 97 % of control | [5] 100 % of control | [10] 97 % of control | [7] 94 % of control | [11] 97 % of control | [8] 93 % of control

CCCCCCCCCCCCc1ccc2c(ccc3ccccc32)c1
inactive: [1] 95 % of control | [2] 98 % of control | [3] 98 % of control

COC12C[C@]34CCCN3CC(O1)c1cc3c(cc1[C@@H]4[C@@H]2O)OCO3
inactive: dose: 25.0 mg/kg/injection, schedule: Q01DX009 (ip), vehicle: saline 105 % of control | dose: 50.0 mg/kg/injection, schedule: Q01DX009 (ip), vehicle: saline 112 % of control

Cc1cc(C(c2ccccc2)c2ccccc2)cc(C)c1OCc1ccccc1
inactive: dose: 50.0 mg/kg/injection, schedule: Q01DX001 (ip), vehicle: Klucel (hydroxypropylcellulose) (HPC) 93 % of control | [4] 93 % of control | [6] 90 % of control

CC(=O)Nc1ccc(Cl)cc1C(=O)c1ccccc1
inactive: dose: 100.0 mg/kg/injection, schedule: Q04DX002 (ip), vehicle: Klucel (hydroxypropylcellulose) (HPC) 96 % of control | dose: 200.0 mg/kg/injection, schedule: Q04DX002 (ip), vehicle: Klucel (hydroxypropylcellulose) (HPC) 108 % of control | dose: 400.0 mg/kg/injection, schedule: Q04DX002 (ip), vehicle: Klucel (hydroxypropylcellulose) (HPC) 96 % of control

CCCCCCCCCCCCCCCCCCCCCCOC(=O)CCC(=O)OCCCCCCCCCCCCCCCCCCCCCC
inactive: dose: 100.0 mg/kg/injection, schedule: Q01DX009 (ip), vehicle: gum acacia 86 % of control | dose: 100.0 mg/kg/injection, schedule: Q04DX003 (ip), vehicle: gum acacia 95 % of control | dose: 200.0 mg/kg/injection, schedule: Q01DX009 (ip), vehicle: gum acacia 86 % of control | dose: 200.0 mg/kg/injection, schedule: Q04DX003 (ip), vehicle: gum acacia 92 % of control | dose: 400.0 mg/kg/injection, schedule: Q04DX003 (ip), vehicle: gum acacia 92 % of control

O=c1c([N+](=O)[O-])cc([N+](=O)[O-])cn1O
inactive: [5] 100 % of control | [7] 100 % of control | [8] 90 % of control

O=C(COc1cccc(Cl)c1)NCc1cccc(NC(=O)c2cccc(S(=O)(=O)F)c2)c1
inactive: dose: 100.0 mg/kg/injection, schedule: Q01DX001 (ip), vehicle: gum acacia 97 % of control | dose: 200.0 mg/kg/injection, schedule: Q01DX001 (ip), vehicle: gum acacia 93 % of control | dose: 400.0 mg/kg/injection, schedule: Q01DX001 (ip), vehicle: gum acacia 98 % of control

CCc1ccc(NC(=O)C(c2ccccc2)c2ccccc2)cc1
inactive: dose: 50.0 mg/kg/injection, schedule: Q04DX003 (ip), vehicle: Klucel (hydroxypropylcellulose) (HPC) 101 % of control | [9] 92 % of control | [5] 100 % of control | [10] 89 % of control | [7] 93 % of control | [11] 89 % of control | [8] 93 % of control

Cc1ccc(NS(=O)(=O)c2ccc(F)cc2)c(C)c1
inactive: [9] 94 % of control | [5] 100 % of control | [10] 94 % of control | [7] 97 % of control | [11] 101 % of control | [8] 101 % of control

O=c1c(N(CCO)CCO)cn(C(c2ccccc2)(c2ccccc2)c2ccccc2)c(=O)n1C(c1ccccc1)(c1ccccc1)c1ccccc1
inactive: dose: 50.0 mg/kg/injection, schedule: Q01DX001 (ip), vehicle: carboxymethylcellulose (CMC) 104 % of control | dose: 100.0 mg/kg/injection, schedule: Q01DX001 (ip), vehicle: carboxymethylcellulose (CMC) 96 % of control | dose: 200.0 mg/kg/injection, schedule: Q01DX001 (ip), vehicle: carboxymethylcellulose (CMC) 100 % of control | dose: 400.0 mg/kg/injection, schedule: Q01DX001 (ip), vehicle: carboxymethylcellulose (CMC) 96 % of control

CC1(C)C=CN(c2ccc(Cl)cc2)C(=O)O1
inactive: dose: 100.0 mg/kg/injection, schedule: Q04DX002 (ip), vehicle: gum acacia 103 % of control | dose: 200.0 mg/kg/injection, schedule: Q04DX002 (ip), vehicle: gum acacia 97 % of control | dose: 400.0 mg/kg/injection, schedule: Q04DX002 (ip), vehicle: gum acacia 87 % of control
